The values that follow come from patent US11542273B2, “Amide compound having bet proteolysis-inducing action and medicinal application thereof” (MITSUBISHI TANABE PHARMA CORPORATION, priority 2018, dated 2023).

The target of data set [1] is BRD4 protein (Homo sapiens (Human), UniProt O60885). The data set can be described thus: BRD4 protein degradation inducing action in cancer cells (immunofluorescence, Operetta). Particulars: LNCaP cells, 6 hr treatment, fluorescence intensity. It counts as cell-based. A digest of the protocol:
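DC50 = compound concentration reducing BRD4 immunofluorescence to 50% of untreated cells, interpolated between the two flanking concentrations. Treatment: LNCaP cells, 6 hr, 10% FBS/RPMI1640, 37° C. Cells were then fixed, permeabilized, stained with anti-BRD4 and Alexa Fluor 488 or 546 secondaries, and imaged.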

The test system of data set [2] is human triple negative breast cancer MDA-MB-231 cell. The data set can be described thus: Cytotoxic action on cancer cells (WST-8, 96 hr). The settings on record: MDA-MB-231 cells, 96 hr culture. The class given is cell-based. A digest of the protocol: (§1)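 Growth medium was 10% FBS/RPMI1640 throughout, with compound added after an overnight culture at 37° C. Survival was scored by WST-8 relative to untreated cells.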

The test system of data set [3] is human castration-resistant prostate cancer PC-3 cell. The data set can be described thus: Cytotoxic action on cancer cells (WST-8, 96 hr). The class given is cell-based. Particulars: PC-3 cells (printed P0-3 in table), 96 hr culture. A digest of the protocol:
as §1
(In general: Tetrazolium dyes change colour on reduction, which living cells bring about.)

The test system of data set [4] is human non-small cell lung cancer NCI-H1975 cell. In words: Cytotoxic action on cancer cells (WST-8, 96 hr). It counts as cell-based. Particulars: 96 hr culture. A digest of the protocol:
as §1

In data set [5] the test system is human T-cell leukemia Jurkat cells. In words: Cytotoxic action on cancer cells (WST-8, 96 hr). It counts as cell-based. Particulars: 96 hr culture. A digest of the protocol: as §1
For data set [6], the system named is human diffuse large B-cell lymphoma SU-DHL-6 cell. The data set can be described thus: Cytotoxic action on cancer cells (WST-8, 96 hr). The class given is cell-based. Particulars: SU-DHL-6 cells, 96 hr culture. A digest of the protocol: as §1
The subject of data set [7] is human ovarian cancer A2780 cell. In words: Cytotoxic action on cancer cells (WST-8, 96 hr). It counts as cell-based. Particulars: 96 hr culture. A digest of the protocol: as §1
Data set [8] concerns human bladder cancer 5637 cell. The data set can be described thus: Cytotoxic action on cancer cells (WST-8, 96 hr). The class given is cell-based. The settings on record: 5637 cells, 96 hr culture. A digest of the protocol: as §1
In data set [9] the test system is human acute myeloid leukemia MV-4-11 cell. The data set can be described thus: Cytotoxic action on cancer cells (WST-8, 96 hr). The settings on record: MV4-11, MV-4-11 cells, 96 hr culture. It counts as cell-based. A digest of the protocol: as §1
Data set [10] has as its system human multiple myeloma MM.1S cell. In words: Cytotoxic action on cancer cells (WST-8, 96 hr). The class given is cell-based. The settings on record: MM1.S, MM.1S cells, 96 hr culture. A digest of the protocol: as §1
The test system of data set [11] is human uterine sarcoma MES-SA cell. In words: Cytotoxic action on cancer cells (WST-8, 96 hr). The class given is cell-based. Particulars: 96 hr culture. A digest of the protocol: as §1
Data set [12] concerns human colorectal cancer HCT116 cell. In words: Cytotoxic action on cancer cells (WST-8, 96 hr). Particulars: HCT-116, 96 hr culture. The class given is cell-based. A digest of the protocol:
as §1

Data set [13] relates to human liver cancer Hep G2 cell. The data set can be described thus: Cytotoxic action on cancer cells (WST-8, 96 hr). It counts as cell-based. Particulars: HepG2, 96 hr culture. A digest of the protocol:
as §1

Data set [14] concerns human breast cancer ZR-75-1 cell. The data set can be described thus: Cytotoxic action on cancer cells (WST-8, 96 hr). The settings on record: ZR-75-1 cells, 96 hr culture. The class given is cell-based. A digest of the protocol:
as §1

The subject of data set [15] is human gastric cancer SNU-16 cell. The data set can be described thus: Cytotoxic action on cancer cells (WST-8, 96 hr). The class given is cell-based. Particulars: SNU-16 cells, 96 hr culture. A digest of the protocol: as §1
Data set [16] deals with human chronic myeloid leukemia K562 cell. The data set can be described thus: Cytotoxic action on cancer cells (WST-8, 96 hr). It counts as cell-based. Particulars: 96 hr culture. A digest of the protocol: as §1
For data set [17], the system named is human large cell lung cancer NCI-H460 cell. In words: Cytotoxic action on cancer cells (WST-8, 96 hr). The class given is cell-based. Particulars: 96 hr culture. A digest of the protocol:
as §1

The subject of data set [18] is human prostate cancer LNCaP cells. The data set can be described thus: Cytotoxic action on cancer cells (WST-8, 96 hr). The class given is cell-based. Particulars: read-out: LNCaP cytotoxic activity: IC50. A digest of the protocol:
as §1

Data set [19] relates to human glioma U-87 MG cell. In words: Cytotoxic action on cancer cells (WST-8, 96 hr). It counts as cell-based. The settings on record: U-87 MG cells, 96 hr culture. A digest of the protocol:
as §1

Data set [20] relates to human pancreatic cancer AsPC-1 cell. The data set can be described thus: Cytotoxic action on cancer cells (WST-8, 96 hr). It counts as cell-based. The settings on record: ASPC1, AsPC-1 cells, 96 hr culture. A digest of the protocol:
as §1

The test system of data set [21] is human Burkitt lymphoma Raji cell. The data set can be described thus: Cytotoxic action on cancer cells (WST-8, 96 hr). It counts as cell-based. The settings on record: 96 hr culture. A digest of the protocol:
as §1

Data set [22] deals with human small cell lung cancer NCI-H82 cell. The data set can be described thus: Cytotoxic action on cancer cells (WST-8, 96 hr). It counts as cell-based. Particulars: 96 hr culture. A digest of the protocol:
as §1

The target in data set [23] is BRD4 bromodomain 1 (Homo sapiens (Human), UniProt O60885). In words: Inhibitory action on binding of BRD4 protein and ligand, Test Method 1 (TR-FRET, BRD4 bromodomain 1 TR-FRET Assay Kit). Particulars: Test Method 1, BRD4 bromodomain 1 and ligand. The protocol: The inhibitory action of the compound of the present invention on the binding of BRD4 protein and a ligand thereof was evaluated by the time-resolved fluorescence resonance energy transfer (TR-FRET) method using BRD4 bromodomain 1 TR-FRET Assay Kit (Cayman). In this experiment, (+)-JQ1 known to have an inhibitory activity on the binding of BRD4 protein and a ligand therefor was used as a positive control drug. A test compound dissolved in DMSO was diluted with TR-FRET Assay Buffer, added to a 384 well black plate, BRD4 bromodomain 1 Europium Chelete was further added and the cells were incubated at room temperature for 15 min. Thereafter, BRD4 bromodomain 1 Ligand/APC Acceptor Mixture was added and the cells were incubated at room temperature for 1 hr. The binding amount of the BRD4 protein and ligand was measured as fluorescence intensity (excitation: 340 nm/emission: 620 nm and excitation: 340 nm/emission: 670 nm).
It was calculated from the straight line connecting the degradation rate at two points enclosing the 50% fluorescence intensity and the compound concentration.

In data set [24] the target is BRD4-1 (GST) (Homo sapiens (Human), UniProt O60885). The data set can be described thus: Inhibitory action on binding of BRD4 protein and acetylated histone H4, Test Method 2 (TR-FRET). The settings on record: Test Method 2, BRD4-1 (GST) and acetylated histone H4, TR-FRET. The protocol: The inhibitory action of the compound of the present invention on the binding of BRD4 protein and a ligand thereof (acetylated histone H4) was evaluated by the time-resolved fluorescence resonance energy transfer (TR-FRET) method using EPIgeneous™ Binding Domain Kit A (Cisbio), BRD4-1 (GST) (Reaction Biology Corp) and [Lys(Ac)5/8/12/16]-Histone H4(1-21)-GGK (Biotin) (Eurogentec). In this experiment, (+)-JQ1 known to have an inhibitory activity on the binding of BRD4 protein and acetylated histone H4 therefor was used as a positive control drug. A test compound dissolved DMSO was diluted with attached Diluent Buffer, added to a 384 well white plate, and BRD4-1 (GST) and [Lys(Ac)5/8/12/16]-Histone H4(1-21)-GGK (Biotin) were further added. Thereafter, Streptavidin-d2 conjugate and Anti-GST-Eu^3+ Cryptate Conjugate were added and the cells were incubated at room temperature for 3 hr. The binding amount of the BRD4 protein and acetylated histone H4 was measured as the fluorescence intensity (excitation: 314 nm/emission: 620 nm and excitation: 314 nm/emission: 665 nm). […] It was calculated from the straight line connecting the degradation rate at two points enclosing the 50% fluorescence intensity and the compound concentration.
Background: In TR-FRET formats the signal depends on donor and acceptor labels being close together.

Where two headings read alike, the source gives them in different places.

Usually DC50 stands for the concentration at which degradation of the target reaches its halfway point. A high value points to degradation only at high concentration. One may read the IC50 as the midpoint of a concentration-inhibition curve.

The molecule `COC(=O)C[C@@H]1N=C(c2ccc(-c3ccc(OCCOCC(=O)N[C@H](C(=O)N4C[C@H](O)C[C@H]4C(=O)N[C@@H](C)c4ccc(-c5scnc5C)cc4)C(C)(C)C)c(C#N)c3)cc2)c2c(sc(C)c2C)-n2c(C)nnc21` [Example 8, methyl [(6S)-4-(3′-cyano-4′-{2-[2-({(2S)-1-[(2S,4R)-4-hydroxy-2-({(1S)-1-[4-(4-methyl-1,3-thiazol-5-yl)phenyl]ethyl}carbamoyl)pyrrolidin-1-yl]-3,3-dimethyl-1-oxobutan-2-yl}amino)-2-oxoethoxy]ethoxy}[1,1′-biphenyl]-4-yl)-2,3,9-trimethyl-6H-thieno[3,2-f][1,2,4]triazolo[4,3-a][1,4]diazepin-6-yl]acetate] registered a DC50 in data set [1] of 0.41 nM. For the same molecule, the IC50 was determined as 14 nM in data set [2]; 2.5 nM in data set [3]; 20 nM in [4]; 4.3 nM in data set [5]; 2.1 nM in data set [6]; 0.36 nM in data set [7]. Also, the IC50 in [8] stood at 2.1 nM; in data set [9], 0.15 nM; in [10] it was 0.24 nM; in data set [11] it was 21 nM; in [12], 37 nM; in data set [13], 48 nM. Moreover, the IC50 came out at 4.2 nM in data set [14]; 17 nM in data set [15]; 5.2 nM in [16]; 75 nM in data set [17]; 0.68 nM in data set [18] (Homo sapiens, LNCaP, 96 h); 25 nM in data set [19]. Also, the IC50 was 81 nM in data set [20], 5.7 nM in data set [21], 35 nM in [22] and 82 nM in data set [23].
In the case of (+)-JQ1 [reference compound], the IC50 in [24] amounted to 550 nM; in [18] (LNCaP cells, 96 hr culture, WST-8), 19000 nM; in data set [23], 7400 nM.
